What all share (type): in vivo
Assay [1] has as its system Foxtail, Giant (giant foxtail, Setaria faberi). The assay is described as follows: Test A1 preemergence, Foxtail, Giant. An outline of the steps:
(§1)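 Plants grown in pots of loam/sand mix; preemergence = soil-directed spray on seeded pots, postemergence = spray at 1–2 leaves, height 2–10 cm; test chemicals formulated in non-phytotoxic solvent with surfactant.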

In a further assay the test system is kochia (Bassia scoparia). The assay is described as follows: Test A1 preemergence, kochia. An outline of the steps:
as §1

The test system of assay [2] is Ryegrass, Italian (Italian ryegrass, Lolium multiflorum). Briefly: Test A1 preemergence, Ryegrass, Italian. An outline of the steps: as §1
Assay [3] deals with wheat (Triticum aestivum). Briefly: Test A1 preemergence, wheat. An outline of the steps: as §1
For another assay, the system named is corn (Zea mays). The assay is described as follows: Test A1 postemergence, corn. The following applies: Postemergence. An outline of the steps: as §1
The subject of assay [4] is Foxtail, Giant (giant foxtail, Setaria faberi). Briefly: Test A1 postemergence, Foxtail, Giant. The settings on record: Postemergence. An outline of the steps:
as §1

The next assay deals with soybean (Glycine max). Briefly: Test A1 postemergence, soybean. The settings on record: Postemergence. An outline of the steps: as §1
In the next assay the test system is rice (Oryza sativa). Briefly: Test B1 flooded paddy test, rice. The settings on record: 250 g ai/ha, Flood, applied to paddy water, 2-leaf stage, visually evaluated after 10 to 14 days. The text has this:
A dash (-) response means no test result.

[5] abbreviates: 31 g ai/ha, 0 to 100 scale (0 no effect, 100 complete control).
Setting [6] is: 125 g ai/ha, 0 to 100 scale, 0 no effect, 100 complete control.
Setting [7] is: 31 g ai/ha, 0 to 100 scale (0 no effect, 100 complete control), 10 days.

On to `CCc1cc(C)c(NS(=O)(=O)C(F)(F)F)cc1C1=NOC2CCCC12` (centres unmarked) [Compound 305], for which the “Plant response rating, Foxtail, Giant” value in assay [1] (setting [5]) is listed as 20; in assay [1] (setting [6]), 90; in assay [4] (setting [7]), 20; in assay [4] (125 g ai/ha, 0 to 100 scale), 60. In addition, the “Plant response rating, Kochia” value worked out at 0 in the assay on kochia (Bassia scoparia) (setting [5]) and 40 with kochia (Bassia scoparia) (setting [6]). Besides, the “Plant response rating, Ryegrass, Italian” value in assay [2] (setting [5]) is recorded as 40; in assay [2] (setting [6]), 90. The “Plant response rating, Wheat” value amounted to 20 in assay [3] (setting [5]) and 40 in assay [3] (setting [6]). Further, the “Plant response rating, Corn” value in the assay on corn (Zea mays) (setting [7]) is given as 0; with corn (Zea mays) (125 g ai/ha, 0 to 100 scale), 0. In addition, the “Plant response rating, Soybean” value is given as 10 with soybean (Glycine max) (setting [7]) and 50 in the assay with soybean (Glycine max) (125 g ai/ha, 0 to 100 scale). Moreover, the “Plant response rating, Rice (0 to 100 scale, 0 is no effect, 100 is complete control)” value in the assay with rice (Oryza sativa) amounted to 0.

For `CCc1cc(C)c(C2=NOC3(CCCC3)C2)cc1NS(=O)(=O)C(F)(F)F` [Compound 311], the “Plant response rating, Foxtail, Giant” value was 0 in assay [1] (setting [5]); 10 in assay [1] (setting [6]); 0 in assay [4] (setting [7]); 20 in assay [4] (125 g ai/ha, 0 to 100 scale). Moreover, the “Plant response rating, Kochia” value with kochia (Bassia scoparia) (setting [5]) and with kochia (Bassia scoparia) (setting [6]) was 0 in each case. Also, the “Plant response rating, Ryegrass, Italian” value was determined as 0 in assay [2] (setting [5]) and 60 in assay [2] (setting [6]). Further, the “Plant response rating, Wheat” value in assay [3] (setting [5]) and in assay [3] (setting [6]) was 0 each time. Moreover, the “Plant response rating, Corn” value in the assay with corn (Zea mays) (setting [7]) came to 0; in the assay with corn (Zea mays) (125 g ai/ha, 0 to 100 scale), 0. Also, the “Plant response rating, Soybean” value in the assay with soybean (Glycine max) (setting [7]) came out at 10; in the assay on soybean (Glycine max) (125 g ai/ha, 0 to 100 scale), 40. Besides, the “Plant response rating, Rice (0 to 100 scale, 0 is no effect, 100 is complete control)” value in the assay with rice (Oryza sativa) was 0.

As for `Cc1c(C(=O)N2CCOCC2)cc(N(COC(=O)C(C)(C)C)S(=O)(=O)C(F)(F)F)c(C)c1C` [Compound 324, [[(Trifluoromethyl)sulfonyl][2,3,4-trimethyl-5-(4-morpholinylcarbonyl)phenyl]amino]methyl 2,2-dimethylpropanoate], the “Plant response rating, Foxtail, Giant” value in assay [1] (setting [5]) worked out at 90; in assay [1] (setting [6]), 100; in assay [4] (setting [7]), 20; in assay [4] (125 g ai/ha, 0 to 100 scale), 90. In addition, the results for the “Plant response rating, Kochia” value in the assay on kochia (Bassia scoparia) (setting [5]) and in the assay on kochia (Bassia scoparia) (setting [6]) were 60 and 90, respectively. Further, the figures for the “Plant response rating, Ryegrass, Italian” value in assay [2] (setting [5]) and in assay [2] (setting [6]) were 20 and 100, respectively. Besides, the “Plant response rating, Wheat” value in assay [3] (setting [5]) is reported as 0; in assay [3] (setting [6]), 70. Also, the “Plant response rating, Corn” value came to 30 in the assay with corn (Zea mays) (setting [7]) and 30 in the assay with corn (Zea mays) (125 g ai/ha, 0 to 100 scale). Moreover, the “Plant response rating, Soybean” value in the assay with soybean (Glycine max) (setting [7]) turned out to be 50; in the assay with soybean (Glycine max) (125 g ai/ha, 0 to 100 scale), 60. In the assay with rice (Oryza sativa), the “Plant response rating, Rice (0 to 100 scale, 0 is no effect, 100 is complete control)” value was found to be 0.

Consider `Cc1c(NS(=O)(=O)C(F)(F)F)cc(C(=O)N2CCCCC2)c(C)c1C` [Compound 326], for which the “Plant response rating, Foxtail, Giant” value in assay [1] (setting [5]) is 100; in assay [1] (setting [6]), 100; in assay [4] (setting [7]) it was 10; in assay [4] (125 g ai/ha, 0 to 100 scale) it was 30. Besides, the “Plant response rating, Kochia” value with kochia (Bassia scoparia) (setting [5]) and in the assay on kochia (Bassia scoparia) (setting [6]) was 80 throughout. The “Plant response rating, Ryegrass, Italian” value was 20 in assay [2] (setting [5]) and 70 in assay [2] (setting [6]). The “Plant response rating, Wheat” value in assay [3] (setting [5]) stood at 0; in assay [3] (setting [6]), 50. Also, the “Plant response rating, Corn” value in the assay on corn (Zea mays) (setting [7]) was 0; in the assay on corn (Zea mays) (125 g ai/ha, 0 to 100 scale), 0. Also, the “Plant response rating, Soybean” value in the assay with soybean (Glycine max) (setting [7]) is reported as 70; with soybean (Glycine max) (125 g ai/ha, 0 to 100 scale), 70. Further, the “Plant response rating, Rice (0 to 100 scale, 0 is no effect, 100 is complete control)” value with rice (Oryza sativa) is 0.

As for `Cc1c(NS(=O)(=O)C(F)(F)F)cc(C(=O)N2CC(C)OC(C)C2)c(C)c1C` (centres unmarked) [Compound 327], the “Plant response rating, Foxtail, Giant” value was found to be 100 in assay [1] (setting [5]); 100 in assay [1] (setting [6]); 30 in assay [4] (setting [7]); 90 in assay [4] (125 g ai/ha, 0 to 100 scale). For the same compound, the “Plant response rating, Kochia” value is 0 with kochia (Bassia scoparia) (setting [5]) and 70 in the assay on kochia (Bassia scoparia) (setting [6]). The entries for the “Plant response rating, Ryegrass, Italian” value in assay [2] (setting [5]) and in assay [2] (setting [6]) were 40 and 50, respectively. Moreover, the “Plant response rating, Wheat” value in assay [3] (setting [5]) is reported as 0; in assay [3] (setting [6]), 30. In addition, the “Plant response rating, Corn” value in the assay with corn (Zea mays) (setting [7]) worked out at 10; in the assay on corn (Zea mays) (125 g ai/ha, 0 to 100 scale), 40. The “Plant response rating, Soybean” value in the assay with soybean (Glycine max) (setting [7]) worked out at 60; in the assay on soybean (Glycine max) (125 g ai/ha, 0 to 100 scale), 60. The “Plant response rating, Rice (0 to 100 scale, 0 is no effect, 100 is complete control)” value with rice (Oryza sativa) is listed as 0.

Consider `COCC1CC(c2cc(N(COC(=O)C(C)(C)C)S(=O)(=O)C(F)(F)F)c(C)cc2C)=NO1` (centres unmarked) [Compound 338], for which the “Plant response rating, Foxtail, Giant” value worked out at 10 in assay [1] (setting [5]); 90 in assay [1] (setting [6]); 10 in assay [4] (setting [7]); 80 in assay [4] (125 g ai/ha, 0 to 100 scale). Further, the entries for the “Plant response rating, Kochia” value in the assay on kochia (Bassia scoparia) (setting [5]) and in the assay on kochia (Bassia scoparia) (setting [6]) were 0 and 10, respectively. Moreover, the “Plant response rating, Ryegrass, Italian” value in assay [2] (setting [5]) and in assay [2] (setting [6]) was 30 each time. Further, the “Plant response rating, Wheat” value in assay [3] (setting [5]) was 0; in assay [3] (setting [6]) it was 80. Besides, the “Plant response rating, Corn” value in the assay with corn (Zea mays) (setting [7]) was found to be 10; in the assay on corn (Zea mays) (125 g ai/ha, 0 to 100 scale) it was 30. Also, the “Plant response rating, Soybean” value in the assay on soybean (Glycine max) (setting [7]) came out at 10; in the assay on soybean (Glycine max) (125 g ai/ha, 0 to 100 scale), 40. The “Plant response rating, Rice (0 to 100 scale, 0 is no effect, 100 is complete control)” value in the assay on rice (Oryza sativa) came to 20.

Regarding `Cc1cc(C)c(C2=NOC3(C)CCCC23)cc1NS(=O)(=O)C(F)(F)F` (centres unmarked) [Compound 340], the “Plant response rating, Foxtail, Giant” value in assay [1] (setting [5]) turned out to be 50; in assay [1] (setting [6]) it was 100; in assay [4] (setting [7]), 10; in assay [4] (125 g ai/ha, 0 to 100 scale), 50. Further, the “Plant response rating, Kochia” value with kochia (Bassia scoparia) (setting [6]) stood at 60. The “Plant response rating, Ryegrass, Italian” value in assay [2] (setting [5]) came out at 50; in assay [2] (setting [6]), 100. Moreover, the “Plant response rating, Wheat” value in assay [3] (setting [5]) was found to be 20; in assay [3] (setting [6]) it was 90. In addition, the “Plant response rating, Corn” value with corn (Zea mays) (setting [7]) stood at 20; with corn (Zea mays) (125 g ai/ha, 0 to 100 scale), 50. For the same compound, the “Plant response rating, Soybean” value in the assay with soybean (Glycine max) (setting [7]) was 50; in the assay with soybean (Glycine max) (125 g ai/ha, 0 to 100 scale) it was 60. The “Plant response rating, Rice (0 to 100 scale, 0 is no effect, 100 is complete control)” value in the assay on rice (Oryza sativa) worked out at 10.

Consider `Cc1cc(C)c(N(COC(=O)C(C)(C)C)S(=O)(=O)C(F)(F)F)cc1C1=NOC2(C)CCCC12` (centres unmarked) [Compound 341], for which the “Plant response rating, Foxtail, Giant” value in assay [1] (setting [5]) was determined as 0; in assay [1] (setting [6]), 50; in assay [4] (setting [7]), 0; in assay [4] (125 g ai/ha, 0 to 100 scale), 20. The “Plant response rating, Kochia” value was 0 in the assay with kochia (Bassia scoparia) (setting [5]) and 40 in the assay with kochia (Bassia scoparia) (setting [6]). Also, the “Plant response rating, Ryegrass, Italian” value in assay [2] (setting [5]) is 0; in assay [2] (setting [6]) it was 40. For the same compound, the “Plant response rating, Wheat” value in assay [3] (setting [5]) and in assay [3] (setting [6]) was 0 each time. Moreover, the “Plant response rating, Corn” value in the assay with corn (Zea mays) (setting [7]) is on record as 0; in the assay with corn (Zea mays) (125 g ai/ha, 0 to 100 scale), 0. Further, the “Plant response rating, Soybean” value worked out at 40 in the assay with soybean (Glycine max) (setting [7]) and 50 with soybean (Glycine max) (125 g ai/ha, 0 to 100 scale). In addition, in the assay on rice (Oryza sativa), the “Plant response rating, Rice (0 to 100 scale, 0 is no effect, 100 is complete control)” value was 55.

As to `CCC1ON=C(c2cc(NS(=O)(=O)C(F)(F)F)c(C)cc2C)C1CC` (centres unmarked) [Compound 343], the “Plant response rating, Foxtail, Giant” value in assay [1] (setting [5]) is listed as 90; in assay [1] (setting [6]) it was 100; in assay [4] (setting [7]), 0; in assay [4] (125 g ai/ha, 0 to 100 scale), 30. Moreover, the “Plant response rating, Kochia” value was found to be 30 with kochia (Bassia scoparia) (setting [5]) and 70 in the assay with kochia (Bassia scoparia) (setting [6]). Further, the “Plant response rating, Ryegrass, Italian” value in assay [2] (setting [5]) was found to be 60; in assay [2] (setting [6]), 100. The “Plant response rating, Wheat” value in assay [3] (setting [5]) is 10; in assay [3] (setting [6]), 90. Also, the “Plant response rating, Corn” value is 10 with corn (Zea mays) (setting [7]) and 40 with corn (Zea mays) (125 g ai/ha, 0 to 100 scale). Besides, the “Plant response rating, Soybean” value is listed as 40 in the assay with soybean (Glycine max) (setting [7]) and 60 in the assay on soybean (Glycine max) (125 g ai/ha, 0 to 100 scale). The “Plant response rating, Rice (0 to 100 scale, 0 is no effect, 100 is complete control)” value with rice (Oryza sativa) is recorded as 40.

These data come from patent publication US20230278972A1, “SUBSTITUTED HALOALKYL SULFONANILIDE HERBICIDES” (FMC Corporation, priority 2020, published 2023).
